In patent US9708314B2, “Heterocyclic amide compound” (NISSAN CHEMICAL INDUSTRIES, LTD., priority 2013, dated 2017):

What was measured:
Type in all cases: in vivo
Monochoria vaginalis = assay: Test Example 2: herbicidal activity, application during weed generation in submerged conditions; details: Eighteenth Table; application herbicide amount 320 g/ha
In short: (§1)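 Alluvial soil in Wagner pots flooded to 4 cm water depth; seeds sown mixed, grown in greenhouse at 25–30 °C. At one- to two-leaf stage, emulsion diluted with water to the set rate (g/ha) was applied to the water surface. Effect scored 0–5 by herbicidal ratio three weeks later.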

Scirpus juncoides = assay: as above; details: Eighteenth Table; application herbicide amount 320 g/ha
In short: as §1

[1] = test system: Echinochloa oryzacola Vasing.; assay: as above; details: Eighteenth Table; application herbicide amount 320 g/ha
In short: as §1

[2] = test system: Beta vulgaris ssp. vulgaris; assay: Test Example 4: effect on crop by application to foliage (diluvial soil, plastic box); details: for f (Beta vulgaris ssp. vulgaris) effect on crop grade: Application herbicide amount 320 g/ha, foliage application
In short: (§2)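 Scores run from 0 (herbicidal ratio ≤5%) to 5 (≥90%, almost fully withered) and were assessed three weeks after foliar spraying. Seedlings had been raised for 14 days at 25-30° C in sterilized diluvial soil before treatment, with the emulsion diluted in water to the stated g/ha dose.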

Glycine max = assay: as above; details: for d (Glycine max) effect on crop grade: Application herbicide amount 320 g/ha, foliage application
In short: as §2

[3] = test system: directly sowed Oryza sativa; assay: as above; details: for b (directly sowed Oryza sativa) effect on crop grade: Application herbicide amount 320 g/ha, foliage application
In short: as §2

Triticum aestivum = assay: as above; details: for e (Triticum aestivum) effect on crop grade: Application herbicide amount 320 g/ha, foliage application
In short: as §2

Brassica campestris L. = assay: as above; details: for g (Brassica campestris L.) effect on crop grade: Application herbicide amount 320 g/ha, foliage application
In short: as §2

Zea mays = assay: as above; details: for c (Zea mays) effect on crop grade: Application herbicide amount 320 g/ha, foliage application
In short: as §2

Amaranthus retroflexus = assay: Test Example 4: herbicidal effect by application to foliage (diluvial soil, plastic box); details: for N (Amaranthus retroflexus) herbicidal effect grade: Application herbicide amount 320 g/ha, foliage application
In short: as §2

Abutilon theophrasti = assay: as above; details: for M (Abutilon theophrasti) herbicidal effect grade: Application herbicide amount 320 g/ha, foliage application
In short: as §2

[4] = test system: Echinochloa crus-galli var. crus-galli; assay: as above; details: for H (Echinochloa crus-galli var. crus-galli) herbicidal effect grade: Application herbicide amount 320 g/ha, foliage application
In short: as §2

Avena fatua = assay: as above; details: for I (Avena fatua) herbicidal effect grade: Application herbicide amount 320 g/ha, foliage application
In short: as §2

Alopecurus myosuroides = assay: as above; details: for J (Alopecurus myosuroides) herbicidal effect grade: Application herbicide amount 320 g/ha, foliage application
In short: as §2

Galium spurium = assay: as above; details: for Q (Galium spurium) herbicidal effect grade: Application herbicide amount 320 g/ha, foliage application
In short: as §2

Digitaria ciliaris = assay: as above; details: for F (Digitaria ciliaris) herbicidal effect grade: Application herbicide amount 320 g/ha, foliage application
In short: as §2

Chenopodium album = assay: as above; details: for O (Chenopodium album) herbicidal effect grade: Application herbicide amount 320 g/ha, foliage application
In short: as §2

Veronica persica = assay: as above; details: for R (Veronica persica) herbicidal effect grade: Application herbicide amount 320 g/ha, foliage application
In short: as §2

Stellaria media = assay: as above; details: for P (Stellaria media) herbicidal effect grade: Application herbicide amount 320 g/ha, foliage application
In short: as §2

Lolium multiflorum Lam. = assay: as above; details: for K (Lolium multiflorum Lam.) herbicidal effect grade: Application herbicide amount 320 g/ha, foliage application
In short: as §2

Apera spica-venti. = assay: as above; details: for L (Apera spica-venti.) herbicidal effect grade: Application herbicide amount 320 g/ha, foliage application
In short: as §2

[5] = application to foliage, application herbicide amount 320 g/ha

| SMILES | C (Monochoria vaginalis) herbicidal ratio grade (Monochoria vaginalis) | B (Scirpus juncoides) herbicidal ratio grade (Scirpus juncoides) | A (Echinochloa oryzicola Vasing.) herbicidal ratio grade [1] | f (Beta vulgaris ssp. vulgaris) effect on crop grade [2] | d (Glycine max) effect on crop grade (Glycine max) | b (directly sowed Oryza sativa) effect on crop grade [3] | e (Triticum aestivum) effect on crop grade (Triticum aestivum) | g (Brassica campestris L.) effect on crop grade (Brassica campestris L.) | c (Zea mays) effect on crop grade (Zea mays) | N (Amaranthus retroflexus) herbicidal effect grade (Amaranthus retroflexus) | M (Abutilon theophrasti) herbicidal effect grade (Abutilon theophrasti) | H (Echinochloa crus-galli var. crus-galli) herbicidal effect grade [4] | I (Avena fatua) herbicidal effect grade (Avena fatua) | J (Alopecurus myosuroides) herbicidal effect grade (Alopecurus myosuroides) | Q (Galium spurium) herbicidal effect grade (Galium spurium) | F (Digitaria ciliaris) herbicidal effect grade (Digitaria ciliaris) | O (Chenopodium album) herbicidal effect grade (Chenopodium album) | R (Veronica persica) herbicidal effect grade (Veronica persica) | P (Stellaria media) herbicidal effect grade (Stellaria media) | K (Lolium multiflorum Lam.) herbicidal effect grade (Lolium multiflorum Lam.) | further results |
| --- | --- | --- | --- | --- | --- | --- | --- | --- | --- | --- | --- | --- | --- | --- | --- | --- | --- | --- | --- | --- | --- |
| COCCN(C)c1nnc2c(C(=O)Nc3nnco3)ccc(C(F)(F)F)n12 [1-121] | 4 (Herbicidal ratio of 70% or more and less than 90%) | 4 (Herbicidal ratio of 70% or more and less than 90%) | 4 (Herbicidal ratio of 70% or more and less than 90%) | 5 (Herbicidal ratio of 90% or more (almost completely withered)) | 4 (Herbicidal ratio of 70% or more and less than 90%) | 2 (Herbicidal ratio of 20% or more and less than 40%) | 3 (Herbicidal ratio of 40% or more and less than 70%) | 5 (Herbicidal ratio of 90% or more (almost completely withered)) | 2 (Herbicidal ratio of 20% or more and less than 40%) | 5 (Herbicidal ratio of 90% or more (almost completely withered)) | 4 (Herbicidal ratio of 70% or more and less than 90%) | 5 (Herbicidal ratio of 90% or more (almost completely withered)) | 3 (Herbicidal ratio of 40% or more and less than 70%) | 3 (Herbicidal ratio of 40% or more and less than 70%) | 3 (Herbicidal ratio of 40% or more and less than 70%) | 5 (Herbicidal ratio of 90% or more (almost completely withered)) | 5 (Herbicidal ratio of 90% or more (almost completely withered)) | 5 (Herbicidal ratio of 90% or more (almost completely withered)) | 5 (Herbicidal ratio of 90% or more (almost completely withered)) | 3 (Herbicidal ratio of 40% or more and less than 70%) | L (Apera spica-venti.) herbicidal effect grade (Apera spica-venti.): 3 (Herbicidal ratio of 40% or more and less than 70%) |
| CC(C)Sc1nnc2c(C(=O)Nc3nnnn3C)ccc(C(F)(F)F)n12 [2-025] | 5 (Herbicidal ratio of 90% or more (almost completely withered)) | 4 (Herbicidal ratio of 70% or more and less than 90%) | 5 (Herbicidal ratio of 90% or more (almost completely withered)) | – | – | – | – | – | – | – | – | – | – | – | – | – | – | – | – | – | f: effect on crop, Beta vulgaris ssp. vulgaris [2, 5]: 5 (Herbicidal ratio of 90% or more (almost completely withered)); d: effect on crop, Glycine max (Glycine max; [5]): 4 (Herbicidal ratio of 70% or more and less than 90%); b: effect on crop, directly sowed Oryza sativa [3, 5]: 5 (Herbicidal ratio of 90% or more (almost completely withered)); e: effect on crop, Triticum aestivum (Triticum aestivum; [5]): 3 (Herbicidal ratio of 40% or more and less than 70%); g: effect on crop, Brassica campestris L. (Brassica campestris L.; [5]): 4 (Herbicidal ratio of 70% or more and less than 90%); c: effect on crop, Zea mays (Zea mays; [5]): 1 (Herbicidal ratio of 5% or more and less than 20%); N: herbicidal effect on Amaranthus retroflexus (Amaranthus retroflexus; [5]): 5 (Herbicidal ratio of 90% or more (almost completely withered)); M: herbicidal effect on Abutilon theophrasti (Abutilon theophrasti; [5]): 5 (Herbicidal ratio of 90% or more (almost completely withered)); H: herbicidal effect on Echinochloa crus-galli var. crus-galli [4, 5]: 5 (Herbicidal ratio of 90% or more (almost completely withered)); I: herbicidal effect on Avena fatua (Avena fatua; [5]): 4 (Herbicidal ratio of 70% or more and less than 90%); J: herbicidal effect on Alopecurus myosuroides (Alopecurus myosuroides; [5]): 3 (Herbicidal ratio of 40% or more and less than 70%); Q: herbicidal effect on Galium spurium (Galium spurium; [5]): 4 (Herbicidal ratio of 70% or more and less than 90%); F: herbicidal effect on Digitaria ciliaris (Digitaria ciliaris; [5]): 5 (Herbicidal ratio of 90% or more (almost completely withered)); O: herbicidal effect on Chenopodium album (Chenopodium album; [5]): 5 (Herbicidal ratio of 90% or more (almost completely withered)); R: herbicidal effect on Veronica persica (Veronica persica; [5]): 5 (Herbicidal ratio of 90% or more (almost completely withered)); P: herbicidal effect on Stellaria media (Stellaria media; [5]): 5 (Herbicidal ratio of 90% or more (almost completely withered)); K: herbicidal effect on Lolium multiflorum Lam. (Lolium multiflorum Lam.; [5]): 3 (Herbicidal ratio of 40% or more and less than 70%); L: herbicidal effect on Apera spica-venti. (Apera spica-venti.; [5]): 4 (Herbicidal ratio of 70% or more and less than 90%) |
| COCCOCc1nnc2c(C(=O)Nc3nnco3)ccc(C(F)(F)F)n12 [1-107] | 4 (Herbicidal ratio of 70% or more and less than 90%) | 4 (Herbicidal ratio of 70% or more and less than 90%) | 5 (Herbicidal ratio of 90% or more (almost completely withered)) | 5 (Herbicidal ratio of 90% or more (almost completely withered)) | 5 (Herbicidal ratio of 90% or more (almost completely withered)) | 4 (Herbicidal ratio of 70% or more and less than 90%) | 3 (Herbicidal ratio of 40% or more and less than 70%) | 5 (Herbicidal ratio of 90% or more (almost completely withered)) | 1 (Herbicidal ratio of 5% or more and less than 20%) | 5 (Herbicidal ratio of 90% or more (almost completely withered)) | 4 (Herbicidal ratio of 70% or more and less than 90%) | 5 (Herbicidal ratio of 90% or more (almost completely withered)) | 4 (Herbicidal ratio of 70% or more and less than 90%) | 3 (Herbicidal ratio of 40% or more and less than 70%) | 4 (Herbicidal ratio of 70% or more and less than 90%) | 5 (Herbicidal ratio of 90% or more (almost completely withered)) | 5 (Herbicidal ratio of 90% or more (almost completely withered)) | 5 (Herbicidal ratio of 90% or more (almost completely withered)) | 5 (Herbicidal ratio of 90% or more (almost completely withered)) | 3 (Herbicidal ratio of 40% or more and less than 70%) | L (Apera spica-venti.) herbicidal effect grade (Apera spica-venti.): 3 (Herbicidal ratio of 40% or more and less than 70%) |
